In ChEMBL document CHEMBL1139686, “Structure-based design, synthesis, and SAR evaluation of a new series of 8-hydroxyquinolines as HIF-1alpha prolyl hydroxylase inhibitors” (Bioorg Med Chem Lett, 2006):

Columns and labels:
HEK293 = assay: Induction of VEGF in HEK293 cells by ELISA; details: Homo sapiens
Egl nine homolog 1 = Egl nine homolog 1 (Homo sapiens, UniProt Q9GZT9); assay: Inhibition of human EGLN1
Egl nine homolog 1, sequence (Q9GZT9 whole entry): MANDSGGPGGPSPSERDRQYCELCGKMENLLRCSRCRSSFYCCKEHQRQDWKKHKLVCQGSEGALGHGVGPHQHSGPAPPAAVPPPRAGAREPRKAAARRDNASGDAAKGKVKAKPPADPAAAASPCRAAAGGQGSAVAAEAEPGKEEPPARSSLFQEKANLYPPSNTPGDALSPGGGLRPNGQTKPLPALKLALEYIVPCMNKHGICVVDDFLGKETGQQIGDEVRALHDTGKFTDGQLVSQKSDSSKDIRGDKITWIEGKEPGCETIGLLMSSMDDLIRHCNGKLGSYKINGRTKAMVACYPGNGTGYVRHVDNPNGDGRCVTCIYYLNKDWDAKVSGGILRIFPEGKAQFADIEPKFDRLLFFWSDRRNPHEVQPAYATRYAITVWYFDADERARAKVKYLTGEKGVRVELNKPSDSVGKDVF

Row | IC50 (Egl nine homolog 1) | SMILES | EC50 (HEK293)
1 | – | COc1cc(NC(=O)c2ccc3cccnc3c2O)cc(OC)c1 | 3.2 µM
2 | – | N#Cc1ccc(NC(=O)c2ccc3cccnc3c2O)cc1 | 0.14 µM
3 | – | COc1ccc(CNC(=O)c2ccc3cccnc3c2O)cc1 | 0.62 µM
4 | – | N#Cc1cccc(NC(=O)c2ccc3cccnc3c2O)c1 | 0.42 µM
5 | – | Cc1cc(F)cc(NC(=O)c2ccc3cccnc3c2O)c1 | 0.89 µM
6 | – | O=C(NCCc1ccccc1)c1ccc2cccnc2c1O | 0.58 µM
7 | – | O=C(NCc1ccc(Cl)cc1)c1ccc2cccnc2c1O | 3.1 µM
8 | – | O=C(Nc1ccccc1)c1ccc2cccnc2c1O | 0.63 µM
9 | – | O=C(NCc1ccccc1)c1ccc2cccnc2c1O | 0.89 µM
10 | – | O=C(Nc1ccc(C(F)(F)F)cc1)c1ccc2cccnc2c1O | > 100 µM
11 | – | N#CCNC(=O)c1ccc2cccnc2c1O | 4.1 µM
12 | – | COC(=O)c1ccc(NC(=O)c2ccc3cccnc3c2O)cc1 | > 100 µM
13 | – | O=C(O)CNC(=O)c1ccc2cccnc2c1O | > 100 µM
14 | – | O=C(Nc1cccnc1)c1ccc2cccnc2c1O | 1.9 µM
15 | > 100 µM | O=C(O)c1ccc2cccnc2c1O | –
